These are literature values, as cited in patent US20050107350A1, “Method for the treatment or prevention of bone disorders with a cyclooxygenase-2 inhibitor alone and in combination with a bone disorder treatment agent and compositions therewith” (Pharmacia Corporation, priority 2003, published 2005).

For data set [1], the system named is osteoporosis patients.
A further data set relates to patients. The note with it: human, in vivo.
For data set [2], the system named is osteoporosis patients. The note with it: human, in vivo.
Another data set has as its system rats. The note with it: rat, in vivo.

Where a name gives a salt, the structure may show the parent alone. A value given as a limit tells only on which side of the number the result lay.

For the compound `NCCCC(O)(P(=O)(O)O)P(=O)(O)O` [alendronate, 4-amino-1-hydroxybulylidene bisphophonic acid], the “average improvement of patient's BMD” value with osteoporosis patients [1] (after three years of treatment) is 8%. Besides, the “patients treated who show an increase in BMD at the lumbar spine” value in the data set on osteoporosis patients [1] (lumbar spine) is on record as no more than 95%. Further, the common side effects entry in the data set on patients was “can irritate the lining of the upper gastrointestinal tract”.
Take `CC(C)C[C@H](NC(=O)[C@H](CCCCN)NC(=O)CNC(=O)[C@H](CC(C)C)NC(=O)[C@@H](NC(=O)[C@@H]1CSSC[C@H](N)C(=O)N[C@@H](CO)C(=O)N[C@@H](CC(N)=O)C(=O)N[C@@H](CC(C)C)C(=O)N[C@@H](CO)C(=O)N[C@@H]([C@@H](C)O)C(=O)N1)C(C)C)C(=O)N[C@@H](CO)C(=O)N[C@@H](CCC(N)=O)C(=O)N[C@@H](CCC(=O)O)C(=O)N[C@@H](CC(C)C)C(=O)N[C@@H](Cc1c[nH]cn1)C(=O)N[C@@H](CCCCN)C(=O)N[C@@H](CC(C)C)C(=O)N[C@@H](CCC(N)=O)C(=O)N[C@H](C(=O)N[C@@H](Cc1ccc(O)cc1)C(=O)N1CCC[C@H]1C(=O)N[C@@H](CCCNC(=N)N)C(=O)N[C@H](C(=O)N[C@@H](CC(N)=O)C(=O)N[C@H](C(=O)NCC(=O)N[C@@H](CO)C(=O)NCC(=O)N[C@H](C(=O)N1CCC[C@H]1C(N)=O)[C@@H](C)O)[C@@H](C)O)[C@@H](C)O)[C@@H](C)O` [calcitonin]: the “improvement of BMD” value in the data set on osteoporosis patients [1] (intranasal, after 2 years of treatment) is on record as 1-2%. For the same compound, in the data set on patients, the common side effects entry was “flushing, nausea, vomiting, and diarrhea”.
For `O=C(c1ccc(OCCN2CCCCC2)cc1)c1c(-c2ccc(O)cc2)sc2cc(O)ccc12` [raloxifene, Methanone, [6-hydroxy-2-(4-hydroxyphenyl)benzo[b]thien-3-yl] - [4-[2-(1-piperidinyl)ethoxy]phenyl]-, hydrochloride], in the data set with osteoporosis patients [1] (over 2-3 years of treatment), the “increase of BMD of the lumbar spine and hip” value is 2-3%. The “decrease of vertebral fractures” value in the data set with osteoporosis patients [2] is recorded as 50%. In the data set with patients, the common side effects entry was “leg cramps and hot flashes”; the “effect on risk of breast cancer” value is on record as “significantly decreases the risk of breast cancer”.
As to “PTH: parathyroid hormone, the only anabolic agent currently available”, in the data set on osteoporosis patients [1] (Neer et al., NEJM 2001), the “increase of BMD in the spine” value was no more than 13%. Moreover, the common side effects result in the data set on patients was “nausea, headaches, and leg cramps”. Also, the bone tumors entry in the data set on rats is listed as “increase in bone tumors”.
